{"source": "patent US20210386788A1", "about": "“ER TUNABLE PROTEIN REGULATION” (Obsidian Therapeutics, Inc., priority 2018, published 2021)", "key": {"primary human T cells": {"test_system": "primary human T cells", "experiment": "IL12 (p70) in lentivirus transduced primary human T cells, Bazedoxifene dose response (MSD assay)", "format": "cell-based", "experimental": "Primary human T cells were expanded with CD3/CD28 Dynabeads, transduced with lentivirus constructs and expanded for 10 days. Beads were removed and cells were frozen. T cells were later thawed and 100,000 cells were treated overnight with different doses of Bazedoxifene (BZD). Transduction efficiency was assessed by flow cytometry using CD19-Fc staining. The response of IL12 in CD19 CAR-IL12 tandem constructs to increasing concentrations of ligand was measured using OT-001736 construct with increasing doses of BZD starting at 0.01 nM to up to 3 μM for 23 hours. IL12 levels were measured using MSD assay. Controls tested in the experiment included OT-001357, which constitutively expresses IL12 and OT-001407, which is not expected to show any IL12 expression.\nAdditional ER mutants were tested in primary human T cells as described above, except T cells were treated on day 9 of expansion, and not frozen and thawed prior to the experiment (Table 15)."}, "[1]": {"experiment": "Pharmacokinetics of Bazedoxifene in CD-1 mice (plasma, LC-MS-MS)", "format": "in vivo", "parameters": "Plasma Bazedoxifene Concentrations: unit not given here"}, "[2]": {"settings": "3 mg intravenous (IV); cited from earlier work"}}, "note": "Several values for one entry are separate records, joined by “and”; a condition that tells them apart may be missing. Equal entries are not always repeated. Where two headings read alike, the source gives them in different places.", "data": [{"smiles": "Cc1c(-c2ccc(O)cc2)n(Cc2ccc(OCCN3CCCCCC3)cc2)c2ccc(O)cc12", "note": "[Bazedoxifene]", "values": [{"measurement": "EC50", "setting": "primary human T cells; T-cell, BZD dose response in primary human T cells expressing OT-001736, read-out: EC50 of IL12 induction", "result": 200, "unit": "nM"}, {"measurement": "lowest BZD concentration that induced IL12 expression", "setting": "primary human T cells; primary human T cells expressing OT-001736", "result": 0.05, "unit": "µM"}, {"measurement": "Plasma Bazedoxifene Concentrations", "setting": "[1]; 10 mg/kg single dose, 0.25 hours post dose, free and bound combined, individual animals", "result": "0.062 and 0.127 and 0.287"}, {"measurement": "Plasma Bazedoxifene Concentrations", "setting": "[1]; 10 mg/kg single dose, 0.5 hours post dose, free and bound combined, individual animals", "result": "0.050 and 0.091"}, {"measurement": "Plasma Bazedoxifene Concentrations", "setting": "[1]; 10 mg/kg single dose, 1 hours post dose, free and bound combined, individual animals", "result": "0.089 and 0.105"}, {"measurement": "Plasma Bazedoxifene Concentrations", "setting": "[1]; 10 mg/kg single dose, 2 hours post dose, free and bound combined, individual animals", "result": "0.096 and 0.107"}, {"measurement": "Plasma Bazedoxifene Concentrations", "setting": "[1]; 10 mg/kg single dose, 4 hours post dose, free and bound combined, individual animals", "result": "0.053 and 0.055"}, {"measurement": "Plasma Bazedoxifene Concentrations", "setting": "[1]; 10 mg/kg single dose, 7 hours post dose, free and bound combined, individual animals", "result": "0.036 and 0.035"}, {"measurement": "Plasma Bazedoxifene Concentrations", "setting": "[1]; 10 mg/kg single dose, 10 hours post dose, free and bound combined, individual animals", "result": "0.033 and 0.028 and 0.016"}, {"measurement": "Plasma Bazedoxifene Concentrations", "setting": "[1]; 10 mg/kg single dose, 24 hours post dose, free and bound combined, individual animals", "result": "0.005 and 0.003 and 0.004"}, {"measurement": "Plasma Bazedoxifene Concentrations", "setting": "[1]; 100 mg/kg single dose, 0.25 hours post dose, free and bound combined, individual animals", "result": "1.268 and 0.949 and 2.590"}, {"measurement": "Plasma Bazedoxifene Concentrations", "setting": "[1]; 100 mg/kg single dose, 0.5 hours post dose, free and bound combined, individual animals", "result": "2.113 and 2.208 and 4.544"}, {"measurement": "Plasma Bazedoxifene Concentrations", "setting": "[1]; 100 mg/kg single dose, 1 hours post dose, free and bound combined, individual animals", "result": "2.590 and 5.138"}, {"measurement": "Plasma Bazedoxifene Concentrations", "setting": "[1]; 100 mg/kg single dose, 2 hours post dose, free and bound combined, individual animals", "result": "2.272 and 4.161"}, {"measurement": "Plasma Bazedoxifene Concentrations", "setting": "[1]; 100 mg/kg single dose, 4 hours post dose, free and bound combined, individual animals", "result": "1.208 and 1.902"}, {"measurement": "Plasma Bazedoxifene Concentrations", "setting": "[1]; 100 mg/kg single dose, 7 hours post dose, free and bound combined, individual animals", "result": "0.894 and 0.463 and 0.970"}, {"measurement": "Plasma Bazedoxifene Concentrations", "setting": "[1]; 100 mg/kg single dose, 10 hours post dose, free and bound combined, individual animals", "result": "0.754 and 0.497 and 0.713"}, {"measurement": "Plasma Bazedoxifene Concentrations", "setting": "[1]; 100 mg/kg single dose, 24 hours post dose, free and bound combined, individual animals", "result": "0.023 and 0.179 and 0.025"}, {"measurement": "Plasma Bazedoxifene Concentrations", "setting": "[1]; 200 mg/kg single dose, 0.25 hours post dose, free and bound combined, individual animals", "result": "1.495 and 1.013"}, {"measurement": "Plasma Bazedoxifene Concentrations", "setting": "[1]; 200 mg/kg single dose, 0.5 hours post dose, free and bound combined, individual animals", "result": "2.314 and 1.707"}, {"measurement": "Plasma Bazedoxifene Concentrations", "setting": "[1]; 200 mg/kg single dose, 1 hours post dose, free and bound combined, individual animals", "result": "3.397 and 4.013"}, {"measurement": "Plasma Bazedoxifene Concentrations", "setting": "[1]; 200 mg/kg single dose, 2 hours post dose, free and bound combined, individual animals", "result": "2.590 and 3.567"}, {"measurement": "Plasma Bazedoxifene Concentrations", "setting": "[1]; 200 mg/kg single dose, 4 hours post dose, free and bound combined, individual animals", "result": "1.327 and 2.357"}, {"measurement": "Plasma Bazedoxifene Concentrations", "setting": "[1]; 200 mg/kg single dose, 7 hours post dose, free and bound combined, individual animals", "result": "0.866 and 0.726 and 1.189"}, {"measurement": "Plasma Bazedoxifene Concentrations", "setting": "[1]; 200 mg/kg single dose, 10 hours post dose, free and bound combined, individual animals", "result": "0.699 and 0.732 and 0.715"}, {"measurement": "Plasma Bazedoxifene Concentrations", "setting": "[1]; 200 mg/kg single dose, 24 hours post dose, free and bound combined, individual animals", "result": "0.297 and 0.314 and 0.180"}, {"measurement": "concentration at 0.5 h", "setting": "[1]; CD-1, mouse, plasma, oral, 10 mg/kg, 10 mg/kg single dose, 0.5 hours post dose, free and bound combined, individual animals, read-out: Plasma Bazedoxifene Concentrations", "result": 71, "unit": "nM"}, {"measurement": "concentration at 1 h", "setting": "[1]; CD-1, mouse, plasma, oral, 10 mg/kg, 10 mg/kg single dose, 1 hours post dose, free and bound combined, individual animals, read-out: Plasma Bazedoxifene Concentrations", "result": 97, "unit": "nM"}, {"measurement": "concentration at 2 h", "setting": "[1]; CD-1, mouse, plasma, oral, 10 mg/kg, 10 mg/kg single dose, 2 hours post dose, free and bound combined, individual animals, read-out: Plasma Bazedoxifene Concentrations", "result": 77, "unit": "nM"}, {"measurement": "concentration at 4 h", "setting": "[1]; CD-1, mouse, plasma, oral, 10 mg/kg, 10 mg/kg single dose, 4 hours post dose, free and bound combined, individual animals, read-out: Plasma Bazedoxifene Concentrations", "result": 49, "unit": "nM"}, {"measurement": "concentration at 7 h", "setting": "[1]; CD-1, mouse, plasma, oral, 10 mg/kg, 10 mg/kg single dose, 7 hours post dose, free and bound combined, individual animals, read-out: Plasma Bazedoxifene Concentrations", "result": 34, "unit": "nM"}, {"measurement": "concentration at 1 h", "setting": "[1]; CD-1, mouse, plasma, oral, 100 mg/kg, 100 mg/kg single dose, 1 hours post dose, free and bound combined, individual animals, read-out: Plasma Bazedoxifene Concentrations", "result": 3590, "unit": "nM"}, {"measurement": "concentration at 2 h", "setting": "[1]; CD-1, mouse, plasma, oral, 100 mg/kg, 100 mg/kg single dose, 2 hours post dose, free and bound combined, individual animals, read-out: Plasma Bazedoxifene Concentrations", "result": 2820, "unit": "nM"}, {"measurement": "concentration at 4 h", "setting": "[1]; CD-1, mouse, plasma, oral, 100 mg/kg, 100 mg/kg single dose, 4 hours post dose, free and bound combined, individual animals, read-out: Plasma Bazedoxifene Concentrations", "result": 1380, "unit": "nM"}, {"measurement": "concentration at 0.25 h", "setting": "[1]; CD-1, mouse, plasma, oral, 200 mg/kg, 200 mg/kg single dose, 0.25 hours post dose, free and bound combined, individual animals, read-out: Plasma Bazedoxifene Concentrations", "result": 1060, "unit": "nM"}, {"measurement": "concentration at 0.5 h", "setting": "[1]; CD-1, mouse, plasma, oral, 200 mg/kg, 200 mg/kg single dose, 0.5 hours post dose, free and bound combined, individual animals, read-out: Plasma Bazedoxifene Concentrations", "result": 1510, "unit": "nM"}, {"measurement": "concentration at 1 h", "setting": "[1]; CD-1, mouse, plasma, oral, 200 mg/kg, 200 mg/kg single dose, 1 hours post dose, free and bound combined, individual animals, read-out: Plasma Bazedoxifene Concentrations", "result": 2400, "unit": "nM"}, {"measurement": "concentration at 2 h", "setting": "[1]; CD-1, mouse, plasma, oral, 200 mg/kg, 200 mg/kg single dose, 2 hours post dose, free and bound combined, individual animals, read-out: Plasma Bazedoxifene Concentrations", "result": 3270, "unit": "nM"}, {"measurement": "concentration at 4 h", "setting": "[1]; CD-1, mouse, plasma, oral, 200 mg/kg, 200 mg/kg single dose, 4 hours post dose, free and bound combined, individual animals, read-out: Plasma Bazedoxifene Concentrations", "result": 1580, "unit": "nM"}, {"measurement": "Cmax", "setting": "[1]; CD-1, mouse, plasma, dose of 200 mg/kg per os (PO), read-out: Murine Cmax", "result": "~3000", "unit": "nM"}, {"measurement": "Cmax", "setting": "[2]", "result": "~100", "unit": "nM"}]}]}
